These results are taken from patent US20090233893A1, “Methods of Dissolving Beta-Sheet Proteins and Uses Thereof” (priority 2006, published 2009).

“And” between values parts separate entries of the source, which are not always exact repeats. Equal entries are not always repeated. Marks after values point to notes of the source that are not given here.

Data set [1] has as its system tau paired helical filaments. The note with it: basic 500 mM solution, 1:1 molar ratio.
The conditions of data set [2]: Environmental Protection Agency (1999); cited from earlier work.
A further data set relates to wool. The note with it: wool tertiary structure is a bundle of α-helices; selectivity. The text has this: Wool's tertiary structure is a bundle of α-helices. […] The polyproline II conformation of collagen places its dihedral angles in the immediate vicinity of those for the β-sheet structure on a Ramachandran plot. Thus, choice of cation confers selectivity.
For another data set, the target named is Aβ 40 E22Q (Homo sapiens, UniProt P05067, E693Q). It counts as biochemical. Conditions: Aβ 40 E22Q incubated at room temperature for 67 hours, pH 7.4.
Data set [3] concerns the target T1, Aβ 40 E22Q mutant peptide (Homo sapiens, UniProt P05067, E693Q).
T1 sequence (P05067 672-711 E693Q): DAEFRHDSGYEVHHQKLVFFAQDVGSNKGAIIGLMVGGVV
The data set is described as follows: Dissolution of Aβ 40 E22Q mutant peptide by metallized chelator, FTIR amide bands. Conditions: Aβ40 E22Q dissolved in 500 mM chelator/heavy water solution. In kind it is biochemical. How it is done:
(§1) Each metal salt-chelator solution was prepared with a slight excess of metal salt. Chelator-dissolved proteins were then lyophilized twice to eliminate water and resuspended in 200 μl aliquots of heavy water for spectral analysis.
(§2) Fourier Transform Infrared (FTIR) Spectroscopy: Metal chelator-dissolved β-sheet samples were injected into a sample cell with calcium fluoride windows and 0.05 mm path length. The instrument (Nicolet Magna JR 560 Spectrometer, ThermoNicolet, Madison, Wis.) resolution was 4 cm^−1; 1000 scans were collected.
(§3) Spectral subtraction as well as curve fitting and second derivative analysis of the amide I bands was carried out with the software program, Grams/32 Spectral Notebase, version 4.02, level 1 (ThermoNicolet, Madison, Wis.). Curvefitting parameters were not restricted; the fraction of Lorentzian line shape was allowed to vary. The second derivative analysis was carried out using a Savitsky-Golay algorithm, using either a third or fourth degree polynomial fit.

Another data set addresses T2, Aβ 42 wild type peptide (Homo sapiens, UniProt P05067).
T2 construct: The amide I band for the Aβ 42 wild type peptide in the solid state; gift of Dr. Jorge Ghiso
As to the kind of experiment: Dissolution of Aβ 42 wild type peptide by metallized chelator, FTIR amide bands. In kind it is biochemical. Conditions: Aβ42 wt dissolved in 500 mM chelator/heavy water solution. The method, then: as §1, §2, §3

The target in another data set is T3, Aβ 40 wild type peptide (Homo sapiens, UniProt P05067).
T3 construct: The amide I band for the Aβ 40 wild type peptide; gift of Dr. Jorge Ghiso
As to the kind of experiment: Dissolution of Aβ 40 wild type peptide by metallized chelator, FTIR amide bands. The note with it: Aβ40 wt dissolved in 500 mM chelator/heavy water solution. It counts as biochemical. The method, then: as §1, §2, §3

Data set [4] concerns the target T4, Aβ 42 E22Q mutant peptide (Homo sapiens, UniProt P05067, E693Q).
T4 sequence (P05067 672-713 E693Q): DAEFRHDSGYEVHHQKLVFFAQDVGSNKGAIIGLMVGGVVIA
As to the kind of experiment: Dissolution of Aβ 42 E22Q mutant peptide by metallized chelator, FTIR amide bands. In kind it is biochemical. Conditions: Aβ42 E22Q dissolved in 500 mM chelator/heavy water solution. The method, then: as §1, §2, §3

A further data set relates to B. mori fibroin. The note with it: for Dissolution of fibroin: basic 500 mM solution, 1:1 molar ratio.
In the next data set the test system is human erythrocytes. Conditions: Funder et al., 1978; cited from earlier work.

As for `NCCN.[Cu+2].[OH-].[OH-]` [Cu^2+en, Cu^2+ ethylene diamine hydroxide], in data set [1], the “Dissolution of paired helical filaments” value is reported as “can be dissolved”. In addition, the “Toxicity, EPA determination” value in data set [2] is “safe for human consumption”. Besides, the Dissolution of wool entry with wool was “not found to dissolve”. The “Thioflavin T fluorescence yield less than that of the chelator-free aliquot” value on Aβ 40 E22Q is reported as 27%. Besides, the “Amide I peak of metal chelator-dissolved peptide” value (in data set [3]; on Aβ 42 wild type peptide; on Aβ 40 wild type peptide; in data set [4]) was 1673 cm⁻¹ each time. Besides, the “Amide II peak of metal chelator-dissolved peptide” value was 1590 cm⁻¹ in data set [3]; 1534 cm⁻¹ and 1591 cm⁻¹ on Aβ 42 wild type peptide; 1594 cm⁻¹ at Aβ 40 wild type peptide; 1590 cm⁻¹ in [4]. Also, the Dissolution of fibroin entry with B. mori fibroin is given as “can be dissolved”. Besides, the “Speed of the dissolution process for the silk or fibroin fiber” value with B. mori fibroin (judged by eye, more rapid than in the Li^+ ethylene diamine bromide solution) is reported as “instantaneous on contact”.

`O=C([O-])O.[Li+]` [Lithium bicarbonate]: the “Increase of lithium influx into human erythrocytes over lithium chloride” value in the data set with human erythrocytes is on record as “twelve-fold”.

Turning to `NCCN.[Br-].[Li+]` [Li^+en, Li^+ ethylene diamine bromide], the “Dissolution of paired helical filaments” value in data set [1] is on record as “can be dissolved”. For the same compound, the Dissolution of wool result with wool was “not found to dissolve”. In addition, the “Amide I peak of metal chelator-dissolved peptide” value in data set [3] is 1621‡ cm^−1 and 1673 cm^−1; on Aβ 42 wild type peptide it was 1626‡ cm^−1 and 1673 cm^−1; on Aβ 40 wild type peptide, 1629 cm⁻¹ and 1646 cm⁻¹ and 1673 cm⁻¹; in data set [4] it was 1625‡ cm^−1 and 1673 cm^−1. Moreover, the “Amide II peak of metal chelator-dissolved peptide” value in data set [3] was found to be 1531 cm⁻¹; on Aβ 42 wild type peptide it was 1562 cm⁻¹; at Aβ 40 wild type peptide, 1562 cm⁻¹; in [4], 1531 cm⁻¹. Further, the Dissolution of fibroin entry in the data set with B. mori fibroin is recorded as “can be dissolved”.
